Experimental data: patent publication US7521444B2, “Compounds for the treatment of hepatitis C” (Bristol-Myers Squibb Company, priority 2007, dated 2009)

Assays:
HCV NS5B = target: T1, HCV NS5B (Hepatitis C virus genotype 1b, UniProt Q9WMX2); experiment: HCV NS5B RdRp enzyme assay (standard or modified); type: biochemical; settings: HCV NS5B RdRp genotype 1b enzyme; standard or modified assay not stated
T1 construct: The protein was expressed with an 18 amino acid C-terminal truncation to enhance the solubility; made in house; host or cells: E. coli BL21(DE3), pET21a
T1 sequence (Q9WMX2 2420-2992): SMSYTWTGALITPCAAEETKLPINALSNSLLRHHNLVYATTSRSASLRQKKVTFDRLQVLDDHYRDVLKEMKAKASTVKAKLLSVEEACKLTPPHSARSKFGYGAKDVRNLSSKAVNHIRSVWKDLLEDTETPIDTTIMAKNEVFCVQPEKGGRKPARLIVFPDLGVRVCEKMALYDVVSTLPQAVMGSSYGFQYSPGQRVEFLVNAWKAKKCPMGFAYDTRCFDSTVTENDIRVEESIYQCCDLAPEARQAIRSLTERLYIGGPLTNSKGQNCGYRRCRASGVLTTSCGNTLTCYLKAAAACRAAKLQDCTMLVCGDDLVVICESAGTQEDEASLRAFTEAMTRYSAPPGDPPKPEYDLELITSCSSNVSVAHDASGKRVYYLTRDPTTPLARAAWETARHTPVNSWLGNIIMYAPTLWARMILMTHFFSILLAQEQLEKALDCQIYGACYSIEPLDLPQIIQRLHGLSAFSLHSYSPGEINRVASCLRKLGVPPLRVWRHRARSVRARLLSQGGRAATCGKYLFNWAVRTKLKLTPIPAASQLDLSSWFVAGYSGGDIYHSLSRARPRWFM
Description: HCV NS5B RdRp cloning, expression, and purification. The cDNA encoding the NS5B protein of HCV, genotype 1b, was cloned into the pET21a expression vector. The protein was expressed with an 18 amino acid C-terminal truncation to enhance the solubility. The E. coli competent cell line BL21(DE3) was used for expression of the protein. Cultures were grown at 37° C. for ˜4 hours until the cultures reached an optical density of 2.0 at 600 nm. The cultures were cooled to 20° C. and induced with 1 mM IPTG. Fresh ampicillin was added to a final concentration of 50 μg/ml and the cells were grown overnight at 20° C.
Cell pellets (3 L) were lysed for purification to yield 15-24 mgs of purified NS5B. The lysis buffer consisted of 20 mM Tris-HCl, pH 7.4, 500 mM NaCl, 0.5% triton X-100, 1 mM DTT, 1 mM EDTA, 20% glycerol, 0.5 mg/ml lysozyme, 10 mM MgCl2, 15 ug/ml deoxyribonuclease I, and Complete TM protease inhibitor tablets (Roche). After addition of the lysis buffer, frozen cell pellets were resuspended using a tissue homogenizer. To reduce the viscosity of the sample, aliquots of the lysate were sonicated on ice using a microtip attached to a Branson sonicator. The sonicated lysate was centrifuged at 100,000×g for 1 hr at 4° C. and filtered through a 0.2 μm filter unit (Corning).
The protein was purified using two sequential chromatography steps: Heparin sepharose CL-6B and polyU sepharose 4B (Pharmacia). The chromatography buffers were identical to the lysis buffer but contained no lysozyme, deoxyribonuclease I, MgCl2 or protease inhibitor and the NaCl concentration of the buffer was adjusted according to the requirements for charging the protein onto the column. Each column was eluted with a NaCl gradient which varied in length from 5-50 column volumes depending on the column type. After the final chromatography step, the resulting purity of the enzyme is >90% based on SDS-PAGE analysis. The enzyme was aliquoted and stored at −80° C.
Standard HCV NS5B RdRp enzyme assay. HCV RdRp genotype 1b assays were run in a final volume of 60 μl in 96 well plates (Corning 3600). The assay buffer is composed of 20 mM Hepes, pH 7.5, 2.5 mM KCl, 2.5 mM MgCl2, 1 mM DTT, 1.6 U RNAse inhibitor (Promega N2515), 0.01 mg/ml BSA (Sigma B6917), and 2% glycerol. All compounds were serially diluted (3-fold) in DMSO and diluted further in water such that the final concentration of DMSO in the assay was 2%. HCV RdRp genotype 1b enzyme was used at a final concentration of 28 nM. A polyA template was used at 6 nM, and a biotinylated oligo-dT12 primer was used at 180 nM final concentration. Template was obtained commercially (Amersham 27-4110). Biotinylated primer was prepared by Sigma Genosys. 3H-UTP was used at 0.6 μCi (0.29 μM total UTP). Reactions were initiated by the addition of enzyme, incubated at 30° C. for 60 min, and stopped by adding 25 μl of 50 mM EDTA containing SPA beads (4 μg/μl, Amersham RPNQ 0007). Plates were read on a Packard Top Count NXT after >1 hr incubation at room temperature.
Modified HCV NS5B RdRp enzyme assay. A modified enzyme assay was performed essentially as described for the standard enzyme assay except for the following: The biotinylated oligo dT12 primer was precaptured on streptavidin-coated SPA beads by mixing primer and beads in assay buffer and incubating at room temperature for one hour. Unbound primer was removed after centrifugation. The primer-bound beads were resuspended in 20 mM Hepes buffer, pH 7.5 and used in the assay at final concentrations of 20 nM primer and 0.67 μg/μl beads. Order of addition in the assay: enzyme (1.75 nM) was added to diluted compound followed by the addition of a mixture of template (0.36 nM), 3H-UTP (0.6 μCi, 0.29 μM), and primer-bound beads, to initiate the reaction; concentrations given are final. Reactions were allowed to proceed for 4 hours at 30° C.
IC50 values for compounds were determined using seven different [I]. […]

HCV replicon cells = experiment: HCV replicon FRET / luciferase assay; type: cell-based; settings: 50% reduction in FRET or luciferase activity
Description: FRET Assay Preparation. The HCV FRET screening assay was performed in 96-well cell culture plates. The FRET peptide (Anaspec, Inc.) (Taliani et al., Anal. Biochem. 1996, 240, 60-67) contains a fluorescence donor, EDANS, near one end of the peptide and an acceptor, DABCYL, near the other end. The fluorescence of the peptide is quenched by […] resonance energy transfer (RET) between the donor and the acceptor, but as the NS3 protease cleaves the peptide the products are released from RET quenching and the fluorescence of the donor becomes apparent. The assay reagent was made as follows: 5× cell Luciferase cell culture lysis reagent from Promega (#E153A) diluted to 1× with dH2O, NaCl added to 150 mM final, the FRET peptide diluted to 20 μM final from a 2 mM stock.
To prepare plates, HCV replicon cells, with or without a Renilla luciferase reporter gene, were trypsinized and plated in a 96-well plate with titrated test compounds added in columns 3 through 12; columns 1 and 2 contained a control compound (HCV control inhibitor), and the bottom row contained cells with DMSO only. The plates were then placed in a CO2 incubator at 37° C.
Assays. Subsequent to addition of the test compounds described above (FRET Assay Preparation), at various times the plate was removed and Alamar blue solution (Trek Diagnostics, #00-100) was added to measure cellular toxicity. After reading in a Cytoflour 4000 instrument (PE Biosystems), plates were rinsed with PBS and then used for FRET assay by the addition of 30 ul of the FRET peptide assay reagent described above (FRET Assay Preparation) per well. The plate was then placed into the Cytoflour 4000 instrument which had been set to 340 excite/490 emission, automatic mode for up to 20 cycles and the plate read in a kinetic mode. Typically, the signal to noise using an endpoint analysis after the reads was at least three-fold. Alternatively, after Alamar blue reading, plates were rinsed with PBS, then used for luciferase assay using the Promega Dual-Glo Luciferase Assay System or the Promega EnduRen Live Cell Substrate assay.
Compound analysis was performed by quantification of the relative HCV replicon inhibition and the relative cytotoxicity values. To calculate cytoxicity values, the average Alamar Blue fluorescence signals from the control wells were set as 100% non-toxic. The individual signals in each of the compound test wells were then divided by the average control signal and multiplied by 100% to determine […]. To calculate the HCV replicon inhibition values, an average background value was obtained from the two wells containing the highest amount of HCV control inhibitor at the end of the assay period. These numbers were similar to those obtained from naïve Huh-7 cells. The background numbers were then subtracted from the average signal obtained from the control wells and this number was used as 100% activity. The individual signals in each of the compound test wells were then divided by the averaged control values after background subtraction and multiplied by 100% to determine percent activity. EC50 values were calculated as the concentration which caused a 50% reduction in FRET or luciferase activity. The two numbers generated for the compound plate, percent cytoxicity and percent activity, were used to determine compounds of interest for further analysis.

Compound	IC50 (HCV NS5B)	EC50 (HCV replicon cells; Hepatitis C virus)	EC50 (HCV replicon cells)
COc1ccc2c(c1)C1CC1(C(=O)N1CCN3CCCC3C1C)Cn1c-2c(C2CCCCC2)c2ccc(C(=O)NS(=O)(=O)N(C)C)cc21 (stereo not drawn)	0.00458 to 0.5 µM	0.00458 to 0.5 µM	–
COc1ccc2c(c1)C1CC1(C(=O)N1CC3CN(Cc4ccccc4)CC3C1)Cn1c-2c(C2CCCCC2)c2ccc(C(=O)NS(N)(=O)=O)cc21 (stereo not drawn)	0.00458 to 0.5 µM	0.00458 to 0.5 µM	–
COc1ccc2c(c1)[C@@H]1C[C@]1(C(=O)N1CC3CCCN(C(C)=O)C3C1)Cn1c-2c(C2CCCCC2)c2ccc(C(=O)NS(=O)(=O)N(C)C)cc21 (stereo partly drawn) [drawing 73]	0.00458 to 0.5 µM	–	0.00458 to 0.5 µM
COc1ccc2c(c1)C1CC1(C(=O)N1CC3CCCN(C)C3C1)Cn1c-2c(C2CCCCC2)c2ccc(C(=O)NS(=O)(=O)N(C)C)cc21 (stereo not drawn)	0.00458 to 0.5 µM	0.00458 to 0.5 µM	–
COc1ccc2c(c1)C1CC1(C(=O)N1CC3CN(C(C)=O)CC3C1)Cn1c-2c(C2CCCCC2)c2ccc(C(=O)NS(=O)(=O)C3CC3)cc21 (stereo not drawn)	0.00458 to 0.5 µM	0.00458 to 0.5 µM	–
COc1ccc2c(c1)C1CC1(C(=O)N1CCC[C@H]3CN(C(C)=O)C[C@H]31)Cn1c-2c(C2CCCCC2)c2ccc(C(=O)NS(=O)(=O)N(C)C)cc21 (stereo partly drawn)	0.00458 to 0.5 µM	0.00458 to 0.5 µM	–
COc1ccc2c(c1)C1CC1(C(=O)N1CCN3CCC[C@@H]3C1)Cn1c-2c(C2CCCCC2)c2ccc(C(=O)NS(C)(=O)=O)cc21 (stereo partly drawn)	0.00458 to 0.5 µM	0.00458 to 0.5 µM	–
COc1ccc2c(c1)C1CC1(C(=O)N1CC3CCCNC3C1)Cn1c-2c(C2CCCCC2)c2ccc(C(=O)NS(=O)(=O)C3CC3)cc21 (stereo not drawn)	0.00458 to 0.5 µM	0.00458 to 0.5 µM	–
COc1ccc2c(c1)C1CC1(C(=O)N1CC3CCCN(C(C)=O)C3C1)Cn1c-2c(C2CCCCC2)c2ccc(C(=O)NS(=O)(=O)C3CC3)cc21 (stereo not drawn) [drawing 68]	0.00458 to 0.5 µM	–	0.00458 to 0.5 µM
COc1ccc2c(c1)C1CC1(C(=O)N1CCN3CCCC3C1)Cn1c-2c(C2CCCCC2)c2ccc(C(=O)NS(N)(=O)=O)cc21 (stereo not drawn)	0.00458 to 0.5 µM	0.00458 to 0.5 µM	–
COc1ccc2c(c1)C1CC1(C(=O)N1CCN3CCC[C@H]3C1)Cn1c-2c(C2CCCCC2)c2ccc(C(=O)NS(C)(=O)=O)cc21 (stereo partly drawn)	0.00458 to 0.5 µM	0.00458 to 0.5 µM	–
COc1ccc2c(c1)[C@@H]1C[C@]1(C(=O)N1CCN3CCC[C@H]3C1)Cn1c-2c(C2CCCCC2)c2ccc(C(=O)NS(=O)(=O)N(C)C)cc21	0.00458 to 0.5 µM	0.00458 to 0.5 µM	–
COc1ccc2c(c1)[C@@H]1C[C@]1(C(=O)N1CCN3CCC[C@@H]3C1)Cn1c-2c(C2CCCCC2)c2ccc(C(=O)NS(=O)(=O)N(C)C)cc21	0.00458 to 0.5 µM	0.00458 to 0.5 µM	–
COc1ccc2c(c1)C1CC1(C(=O)N1CCN3CCC[C@H]3C1)Cn1c-2c(C2CCCCC2)c2ccc(C(=O)NS(=O)(=O)C3CC3)cc21 (stereo partly drawn)	0.00458 to 0.5 µM	0.00458 to 0.5 µM	–
COc1ccc2c(c1)C1CC1(C(=O)N1CCN3CCC[C@@H]3C1)Cn1c-2c(C2CCCCC2)c2ccc(C(=O)NS(=O)(=O)N3CCC3)cc21 (stereo partly drawn)	0.00458 to 0.5 µM	0.00458 to 0.5 µM	–
COc1ccc2c(c1)C1CC1(C(=O)N1CC3CN(C(=O)OC(C)(C)C)CC3C1)Cn1c-2c(C2CCCCC2)c2ccc(C(=O)NS(=O)(=O)C3CC3)cc21 (stereo not drawn)	0.00458 to 0.5 µM	–	–
COc1ccc2c(c1)C1CC1(C(=O)N1CC3CN(C)CC3C1)Cn1c-2c(C2CCCCC2)c2ccc(C(=O)NS(=O)(=O)C3CC3)cc21 (stereo not drawn)	0.00458 to 0.5 µM	0.00458 to 0.5 µM	–
COc1ccc2c(c1)C1CC1(C(=O)N1CCN3CCC[C@@H]3C1)Cn1c-2c(C2CCCCC2)c2ccc(C(=O)NS(=O)(=O)C3CC3)cc21 (stereo partly drawn)	0.00458 to 0.5 µM	0.00458 to 0.5 µM	–
COc1ccc2c(c1)C1CC1(C(=O)N1CC3CCCN(C(=O)OC(C)(C)C)C3C1)Cn1c-2c(C2CCCCC2)c2ccc(C(=O)NS(=O)(=O)N(C)C)cc21 (stereo not drawn) [drawing 24]	0.00458 to 0.5 µM	0.00458 to 0.5 µM	–
COc1ccc2c(c1)C1CC1(C(=O)N1CCN3CCC[C@H]3C1)Cn1c-2c(C2CCCCC2)c2ccc(C(=O)NS(=O)(=O)N3CCOCC3)cc21 (stereo partly drawn)	0.00458 to 0.5 µM	0.00458 to 0.5 µM	–
COc1ccc2c(c1)C1CC1(C(=O)N1C[C@H]3CN(Cc4ccccc4)C[C@H]3C1)Cn1c-2c(C2CCCCC2)c2ccc(C(=O)NS(=O)(=O)N(C)C)cc21 (stereo partly drawn)	0.00458 to 0.5 µM	0.00458 to 0.5 µM	–
COc1ccc2c(c1)C1CC1(C(=O)N1CCN3CCCC3C1)Cn1c-2c(C2CCCCC2)c2ccc(C(=O)NS(=O)(=O)C(C)C)cc21 (stereo not drawn)	0.00458 to 0.5 µM	0.00458 to 0.5 µM	–
COc1ccc2c(c1)C1CC1(C(=O)N1CC3CN(C(=O)N(C)C)CC3C1)Cn1c-2c(C2CCCCC2)c2ccc(C(=O)NS(N)(=O)=O)cc21 (stereo not drawn)	0.00458 to 0.5 µM	–	–
COc1ccc2c(c1)C1CC1(C(=O)N1CC3CN(C(=O)C4CC4)CC3C1)Cn1c-2c(C2CCCCC2)c2ccc(C(=O)NS(N)(=O)=O)cc21 (stereo not drawn)	0.00458 to 0.5 µM	–	–
